The text below walks through data of ChEMBL document CHEMBL1201862, “PubChem BioAssay data set” (2004).

Molecules are shown by their SMILES.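 48-hour exposure; five concentrations; linearly interpolated endpoints. GI50: concentration for 50% inhibition of growth.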 The source made the active and inactive calls. No stated cut-off is given here; in the data, active = GI50 up to about 1.1 µM and inactive = higher. Some results are limits rather than exact numbers.

Common to all, as to test: DTP human tumour cell line panel, 48 h
Assay [1] has as its system KM12.
The test system of assay [2] is K562.
Assay [3] relates to SF-295.
The test system of assay [4] is SN12C.
Assay [5] deals with SNB-75.
For assay [6], the system named is 786-0.
The test system of assay [7] is NCI-H522.
Assay [8] relates to SK-OV-3.
The test system of assay [9] is SK-MEL-5.
Assay [10] concerns UACC-62.
Assay [11] has as its system Hs-578T.
Assay [12] has as its system NCI-H23.
The test system of assay [13] is UACC-257.
In assay [14] the test system is HT-29.
For assay [15], the system named is CAKI-1.
Assay [16] concerns RPMI-8226.
Assay [17] relates to LOX IMVI.
The subject of assay [18] is A498.
In assay [19] the test system is SNB-19.

Regarding `S=C1NCN2CCN(CC2)CNC(=S)C(=S)NCN2CCN(CC2)CNC1=S`, the GI50 was > 100 µM (inactive) in assay [1]; 27.3 µM (inactive) in assay [2]; > 100 µM (inactive) in assay [3]; 44.5 µM (inactive) in [4]; > 100 µM (inactive) in assay [5]; 45.1 µM (inactive) in assay [6]. Also, the GI50 in [7] was 31 µM (inactive); in assay [8], > 100 µM (inactive); in assay [9] it was 39.5 µM (inactive); in assay [10], 67.8 µM (inactive); in [11], 54.1 µM (inactive); in assay [12], 43 µM (inactive). In addition, the GI50 in assay [13] is 42.7 µM (inactive); in [14] it was 85.5 µM (inactive); in [15], 35.2 µM (inactive); in assay [16] it was 23.7 µM (inactive); in assay [17], 22.3 µM (inactive); in assay [18], > 100 µM (inactive). Moreover, the GI50 in assay [19] is 41.1 µM (inactive).

`CN(C)CCNCCCNc1c2ccccc2nc2cccc([N+](=O)[O-])c12`: the GI50 in [1] is 0.027 µM (active); in assay [2], < 0.0119 µM (active); in assay [3], < 0.0163 µM (active); in [4] it was < 0.0208 µM (active); in assay [5], 0.0173 µM (active); in [6], < 0.0126 µM (active). Also, the 50% growth inhibitory concentration (GI50) in assay [7] was < 0.01 µM (active); in assay [8], 0.0424 µM (active); in assay [9], < 0.0181 µM (active); in assay [10], 0.0446 µM (active); in assay [11] it was < 0.0386 µM (active); in assay [12] it was < 0.0121 µM (active). Moreover, the concentration for 50% growth inhibition (GI50) in [13] is 0.22 µM (active); in assay [14], < 0.0125 µM (active); in assay [15], 0.0385 µM (active); in assay [16], < 0.0138 µM (active); in [17], < 0.0148 µM (active); in [18], 0.021 µM (active). The GI50 in assay [19] is 0.0298 µM (active).

As for `COc1cccc(N2C(=O)C3CC(CC(C)(C)C)c4c([nH]c5ccccc45)C3C2=O)c1` (stereo not drawn), the GI50 is > 10 µM (inactive) in [1]; > 10 µM (inactive) in assay [2]; > 10 µM (inactive) in assay [3]; 6 µM (inactive) in assay [4]; 1.84 µM (inactive) in [5]; 3.8 µM (inactive) in assay [6]. For the same molecule, the GI50 in assay [7] is > 10 µM (inactive); in assay [8], > 10 µM (inactive); in assay [9], > 10 µM (inactive); in [10] it was > 10 µM (inactive); in assay [11] it was 3.5 µM (inactive); in [12], > 10 µM (inactive). The GI50 was > 10 µM (inactive) in assay [13]; > 10 µM (inactive) in assay [14]; > 10 µM (inactive) in [15]; > 10 µM (inactive) in assay [16]; 9.44 µM (inactive) in [17]; > 10 µM (inactive) in assay [18]. Further, the GI50 in assay [19] was > 10 µM (inactive).

For the molecule `Cc1cc(=O)n2nc(CSc3nnc(Sc4cc(O)ccc4O)s3)sc2n1`, the GI50 was > 100 µM (inactive) in assay [1]; 21.5 µM (inactive) in [2]; > 100 µM (inactive) in assay [3]; 58.1 µM (inactive) in assay [4]; > 100 µM (inactive) in [5]; 41.3 µM (inactive) in assay [6]. The GI50 in [7] is 20.4 µM (inactive); in [8] it was > 100 µM (inactive); in [9], 64.1 µM (inactive); in assay [10], 50 µM (inactive); in assay [11], 44.9 µM (inactive); in [12], > 100 µM (inactive). Besides, the GI50 was > 100 µM (inactive) in [13]; > 100 µM (inactive) in assay [14]; > 100 µM (inactive) in assay [15]; 24.5 µM (inactive) in assay [16]; 21.7 µM (inactive) in assay [17]; > 100 µM (inactive) in [18]. The GI50 in [19] is > 100 µM (inactive).

For the molecule `Cc1cc2c(cc1-c1cc3c(cc1C)C(C(C)C)=C(O)C(=O)/C3=C\NCC1CCCN3CCCCC13)/C(=C/NCC1CCCN3CCCCC13)C(=O)C(O)=C2C(C)C` (stereo not drawn), the GI50 is 5.15 µM (inactive) in [1]; 12.2 µM (inactive) in assay [2]; 6.27 µM (inactive) in assay [3]; 4.82 µM (inactive) in assay [4]; 8.15 µM (inactive) in assay [5]; 3.02 µM (inactive) in assay [6]. In addition, the GI50 in assay [7] was 2.84 µM (inactive); in assay [8], 4 µM (inactive); in assay [9] it was 6.75 µM (inactive); in assay [10] it was 7.78 µM (inactive); in assay [11], 10.2 µM (inactive); in assay [12], 6.27 µM (inactive). For the same molecule, the GI50 in assay [13] is 15.3 µM (inactive); in assay [14], 2.47 µM (inactive); in assay [15] it was 3.81 µM (inactive); in assay [16], 11.3 µM (inactive); in assay [17], 3.35 µM (inactive); in assay [18] it was 23.1 µM (inactive). Besides, the GI50 in assay [19] is 7.98 µM (inactive).

In the case of `CC1OC(c2ccc3c(c2O)C(=O)C2=C(C3=O)C3(O)C(=O)CC(C)(O)CC3(O)C=C2)CC(O)C1O` (stereo not drawn), the GI50 in [1] was 21.3 µM (inactive); in [2], 2.7 µM (inactive); in [3], 16.6 µM (inactive); in [4], 15 µM (inactive); in [5], 18.2 µM (inactive); in assay [6], 16.8 µM (inactive). The GI50 in assay [7] is 2.34 µM (inactive); in assay [8], 41.3 µM (inactive); in assay [9] it was 11 µM (inactive); in assay [10], 14.9 µM (inactive); in assay [11], 20.1 µM (inactive); in assay [12], 20.6 µM (inactive). Moreover, the GI50 is 15 µM (inactive) in [13]; 5.4 µM (inactive) in assay [14]; 7.28 µM (inactive) in assay [15]; 9.73 µM (inactive) in assay [16]; 14 µM (inactive) in assay [17]; 18.2 µM (inactive) in [18]. Besides, in [19], the GI50 is 18.4 µM (inactive).

Take `CCN(CC)CC(O)C1CCC(c2ccccc2)CC1` (stereo not drawn): the GI50 in assay [1] was 24 µM (inactive); in assay [2], 26.8 µM (inactive); in assay [3] it was 17.1 µM (inactive); in assay [4], 39.7 µM (inactive); in assay [5], 23.7 µM (inactive); in assay [6], 15.6 µM (inactive). The GI50 was 16.2 µM (inactive) in assay [7]; 16.1 µM (inactive) in [8]; 13.7 µM (inactive) in [9]; 15.6 µM (inactive) in assay [10]; 30.5 µM (inactive) in [11]; 30.4 µM (inactive) in assay [12]. Further, the GI50 in assay [13] was 21 µM (inactive); in [14], 10.5 µM (inactive); in assay [15] it was 19 µM (inactive); in assay [16] it was 13.5 µM (inactive); in assay [17] it was 17.4 µM (inactive); in assay [18], 14.4 µM (inactive). The GI50 in assay [19] is 25.8 µM (inactive).

For orientation: GI50 means the concentration that inhibits growth by half.
